The numbers were not newly measured in patent US8426587B2, “Haloallylamine inhibitors of SSAO/VAP-1 and uses therefor” (Pharmaxis Ltd., priority 2007, dated 2013), which cites them from elsewhere.

Molecules are shown by their SMILES.

In the series the test system is experimental autoimmune encephalomyelitis. To be noted: reported in US 2006/0025438 A1; cited from earlier work.

As for `NC/C(=C/F)CCc1ccc(F)cc1` [Mofegiline, reference compound], the “Inhibition of experimental autoimmune encephalomyelitis” value was “inhibit experimental autoimmune encephalomyelitis”.
